Here are results for 1 compound from US20100047332A1, “Treatments for burns using thyroid hormone compound in a human” (priority 2005, published 2010).

The subject of data set [1] is TSH. The following applies: topically applied, humans; cited from earlier work.
In data set [2] the test system is wounds such as lacerations. The experiment in a line: Lacerations treated with continuous topical T-3 or TriAc. Format: in vivo, human. The conditions noted are these: continuous topical application, in approximately three days.
The subject of another data set is rat. The conditions noted are these: cited from earlier work.
In data set [3] the test system is TSH. The conditions noted are these: cited from earlier work.
The subject of data set [4] is deep dermal pressure ulcer. Put plainly: TriAc cream on a deep dermal pressure ulcer. Format: in vivo, human. An excerpt:
The patient was a active triathlete who had developed a bicycle seat ulcer which was a persistent fissure running from coccyx almost to the anus. The deep dermal pressure ulcer resulted from pressure due to a bicycle seat. This pressure injury frequently was oozing and was generally moist. The fissure was 1-2 mm wide and 2-3 mm deep. It was resistant to a variety of over the counter steroid and anti-fungal creams and lanolin. […] The cream was applied for 4 treatments on an every other day basis, using barely enough to treat the area about 20 cm^2, sometimes every third day. […] Skin has remained intact for close to 6 months. The dermal ulcer in this example was non healing until the cream was used on an intermittent basis

Data set [5] concerns second degree partial thickness scald burn. Put plainly: TriAc cream applied intermittently to a scalding burn in a burn patient. It is filed as in vivo, human. Here is the method: The water content was 65 to 75%, with approximately 30% solids. The semi solid cream formulation includes water, emulsifier, aloe vera, and less than 1% of d-tocopherol acetate or equivalent, panthenol, and retinyl palmitate.
On scalding burn day 0, ice was applied all night. The wound appeared as a large reddish area approximately 15 by 30 cm, with an area of white skin approximately 10 by 10 cm. The cream was applied to the entire area in an amount of much less than 1 gm (less than 80 μg per 400 cm^2) on the evening of Day 1, 24 hours post burn. The worst blistering and numbness was over the whitish area. Over the next 48 hours, the wound became somewhat less painful and the white area started to become pink and then red. The outer area extending over the knee remained red. This burn was therefore a split thickness second degree burn with areas of third degree burn.
The cream was applied again on the evening of Day 3, 72 hours post burn, only to a small area of most burned blistered skin over the original whitish area. […] Prior to application of the cream, the entire area was brilliantly red.
The cream was applied again on the evening of Day 4 over the entire area during this application. […] The entire area of the burn now had brownish epidermis in the process of being sloughed. […] FIGS. 1 and 2 are separated by approximately 36 hours.
This is six 24 hour periods from the time of the burn. […] The outline of the burn injury can clearly be seen by examining the margins of the wound.

Data set [6] deals with thyroid hormone receptor TRα or β. The conditions noted are these: cited from earlier work.

Turning to `O=C(O)Cc1cc(I)c(Oc2ccc(O)c(I)c2)c(I)c1` [TriAc, [4-(4-hydroxy-3-iodophenoxy)-3,5-diiodophenyl]acetic acid], the “effect on TSH levels or other thyroid hormone function tests” value with TSH [1] is given as “no effect on TSH levels”. For the same compound, the signs of inflammation entry in data set [2] is on record as “increased signs of inflammation”. The “amount needed to make a 200 gm rat hyperthyroid” value with rat was “approximately 7 micrograms”. Moreover, in the data set with TSH [3] (350 ug oral, over a few hour time period), the “transient change of TSH levels” value is given as 30%. For the same compound, in the data set with TSH [3] (oral, human), the “minimum oral dosage which transiently changes TSH levels” value was 350 µg. In addition, the “healing of the ulcer” value in data set [4] (0.006% cream, 4 treatments every other day, over the next few weeks) was “substantial healing”. The “time skin has remained intact” value in data set [4] (after treatment with 0.006% cream) is on record as ~6 months. For the same compound, in data set [5] (24 hours after Day 3 application), the “pain in the small treated area” value is recorded as “greatly diminished”. For the same compound, the “increase in healing rate” value in data set [5] (about 1/20th to 1/40th of a normal daily replacement dose, intermittent) is listed as “greater than 100%”. The pigmentation or scar result in data set [5] (after 1.5 years) is listed as “no pigmentation or scar”. In addition, the pain result in data set [5] (after application over entire area on Day 4) is listed as “All pain was resolved overnight”. In addition, the erythema and tenderness result in data set [5] (applied Day 3 to a small area, only where applied) is “decrease in erythema and tenderness”. Besides, the “healing rate of a burn” value in data set [5] (applied twice, less than 80 μg per 400 cm^2, versus time course in medical literature) is given as “approximately doubled the healing rate”. In data set [5] (cream applied to entire area on Day 1, observed over next 48 hours), the “effect of the first application” value is “no visible or other obvious indications that the first application had any effect”. The “signs of inflammation or infection in the wound” value in data set [5] (day 5) is on record as “no signs of inflammation or infection”. Further, the “re-epithelialization of the skin” value in data set [5] (day 5, 20 hours after second application to entire area) is “virtually completely re-epithelialized”. Moreover, the “time to complete re-epithelialization” value in data set [5] (post scald second degree partial thickness burn) is reported as “five to six 24 hour periods”. Further, in data set [5] (prior art 19 days), the “healing time versus average prior art healing time” value is given as “fourteen days less than the average prior art healing time of 19 days”. In addition, in data set [6], the “potency as thyroid hormone agonist” value is “potency about that of T-3” and the selectivity in binding entry was “slightly Beta selective”.
